# In US6310091A, “Fungicidal saponin, CAY-1, and isolation thereof from Capsium species fruit” (The United States of America as represented by the …, priority 2000, dated 2001):
# Where “and” joins values, the source holds several entries; their conditions need not be identical. Identical values can stand only once. Like-named read-outs stand apart in the source and are kept apart here.
# How the values were obtained:
# Type in all cases: cell-based
# Aspergillus fumigatus = assay: Fungicidal bioassay on nongerminated and germinating conidia of A. fumigatus; conditions: nongerminated, RPMI-1640
# Description: (§1) 1. Filamentous fungi. Filamentous fungi used in bioassays included Aspergillus flavus, A. fumigatus, A. niger, A. parasiticus and Fusarium oxysporum. The fungicidal properties of CAY-1 for the nongerminated and germinating conidia of these fungi were determined separately as described by De Lucca et al. [Med. Mycol., 36:291-298 (1998)] and De Lucca et al. [Antimicrob. Agents Chemother. 43:371-373 (1999)]. […] Two separate experiments were conducted in each medium (n=8 per medium).
# (§2) A suspension of the aforementioned fungi were prepared separately in the appropriate medium. Conidia (10^4 conidia/ml) were used immediately for the nongerminated conidial assays while conidia (10^5 conidia/ml) were incubated for 7.5 hours at 30° C. to obtain germinating conidia. Serial dilutions of CAY-1 were prepared in the appropriate medium (totaling 225 μl) to which was added 25 μl of the conidial suspensions. The control consisted of 225 μl of medium and 25 μl of the conidial suspension. After mixing, the samples were incubated for 30 min (30° C.). Samples were then spread on potato dextrose agar plates which were incubated at 30° C. for 24 hours. Colonies were then enumerated.
# (§3) Statistical analyses. ANOVA analyses on ranks for nonparametric data were performed for the bioassays described in this example.
# Aspergillus niger = assay: Fungicidal bioassay on nongerminated and germinating conidia of A. niger; conditions: for activity at 5 µM / activity at 10 µM / activity at 15 µM / activity at 20 µM / activity at 1 µM / activity at 2.5 µM: read-out: Percent of Mean Control
# Description: as §1, §2, §3
# Fusarium oxysporum = assay: Fungicidal bioassay on nongerminated and germinating conidia of F. oxysporum
# Description: as §1, §2, §3
# Candida albicans = assay: Effect on C. albicans viability (NCCLS broth dilution M-27A)
# Description: 2. Candida albicans. The effect of CAY-1 on C. albicans viability was determined by the NCCLS methods (National Committee for Clinical Laboratory Standards, Wayne, Pa., 1997. Reference method for broth dilution antifungal susceptibility testing of yeasts. Approved standard M-27A, herein incorporated by reference).
# [1] = system: A549 lung carcinoma cells; assay: Mammalian cytotoxicity, A549 lung carcinoma cells (ATP content); conditions: at concentrations effective against the fungi and yeast
# Description: 2. A549 lung carcinoma cells. Toxicity of CAY-1 was tested by exposing the cells to CAY-1 for 24, 48, and 72 hrs. Antimycin A was used as a positive control. Viability was assessed by measurement of the ATP content in duplicate wells with luciferin-luciferase monitoring reagent [Cushion et al., Antimicrob. Agents Chemother., 1997, 41:379-384].
structure (smiles),measurement,setting,value
CC1CCC2(OC1)OC1CC3C4CCC5CC(OC6OC(CO)C(OC7OC(CO)C(O)C(OC8OC(CO)C(O)C(OC9OC(CO)C(O)C(O)C9O)C8O)C7OC7OC(CO)C(O)C(O)C7O)C(O)C6O)C(O)CC5(C)C4CCC3(C)C1C2C (centres unmarked) [CAY-1],Mean No. of Colonies,Aspergillus fumigatus; 1.5 μM,22.5
same,Mean No. of Colonies,Aspergillus fumigatus; 2.0 μM,25.1
same,Mean No. of Colonies,Aspergillus fumigatus; 2.5 μM,22.3
same,Mean No. of Colonies,Aspergillus fumigatus; 3.0 μM,23.8
same,activity at 5 µM,"Aspergillus niger; Aspergillus niger, 0.5 h, germinated, RPMI-1640, 5.0 μM",94.9%
same,activity at 10 µM,"Aspergillus niger; Aspergillus niger, 0.5 h, germinated, RPMI-1640, 10.0 μM",86.2%
same,activity at 15 µM,"Aspergillus niger; Aspergillus niger, 0.5 h, germinated, RPMI-1640, 15.0 μM",93.9%
same,activity at 20 µM,"Aspergillus niger; Aspergillus niger, 0.5 h, germinated, RPMI-1640, 20.0 μM",85.4%
same,activity at 1 µM,"Aspergillus niger; Aspergillus niger, 0.5 h, germinating, 1% PDB, 1.0 μM",118%
same,activity at 2.5 µM,"Aspergillus niger; Aspergillus niger, 0.5 h, germinating, 1% PDB, 2.5 μM",89.8%
same,activity at 5 µM,"Aspergillus niger; Aspergillus niger, 0.5 h, germinating, 1% PDB, 5.0 μM",18.2%
same,activity at 10 µM,"Aspergillus niger; Aspergillus niger, 0.5 h, germinating, 1% PDB, 10.0 μM",12%
same,activity at 15 µM,"Aspergillus niger; Aspergillus niger, 0.5 h, germinating, 1% PDB, 15.0 μM",5.7%
same,activity at 20 µM,"Aspergillus niger; Aspergillus niger, 0.5 h, germinating, 1% PDB, 20.0 μM",3.9%
same,activity at 1 µM,"Aspergillus niger; Aspergillus niger, 0.5 h, nongerminated, 1% PDB, 1.0 μM",102%
same,activity at 2.5 µM,"Aspergillus niger; Aspergillus niger, 0.5 h, nongerminated, 1% PDB, 2.5 μM",96.6%
same,activity at 5 µM,"Aspergillus niger; Aspergillus niger, 0.5 h, nongerminated, 1% PDB, 5.0 μM",118%
same,activity at 10 µM,"Aspergillus niger; Aspergillus niger, 0.5 h, nongerminated, 1% PDB, 10.0 μM",92.7%
same,activity at 15 µM,"Aspergillus niger; Aspergillus niger, 0.5 h, nongerminated, 1% PDB, 15.0 μM",116%
same,activity at 20 µM,"Aspergillus niger; Aspergillus niger, 0.5 h, nongerminated, 1% PDB, 20.0 μM",64.4%
same,activity at 5 µM,"Aspergillus niger; Aspergillus niger, 0.5 h, nongerminated, RPMI-1640, 5.0 μM",76.8%
same,activity at 10 µM,"Aspergillus niger; Aspergillus niger, 0.5 h, nongerminated, RPMI-1640, 10.0 μM",87.7%
same,activity at 15 µM,"Aspergillus niger; Aspergillus niger, 0.5 h, nongerminated, RPMI-1640, 15.0 μM",83.8%
same,activity at 20 µM,"Aspergillus niger; Aspergillus niger, 0.5 h, nongerminated, RPMI-1640, 20.0 μM",104%
same,IC95,"Aspergillus niger; Aspergillus niger, 0.5 h, read-out: LD95",15 µM and 18.6 µg/mL
same,minimal effective concentration,"Aspergillus niger; Aspergillus niger, 0.5 h, read-out: concentration achieving significant lethality",5 µM and 6.2 µg/mL
same,Mean No. of Colonies,"Aspergillus niger; germinated, RPMI-1640, 5.0 μM",50.1
same,Mean No. of Colonies,"Aspergillus niger; germinated, RPMI-1640, 10.0 μM",45.5
same,Mean No. of Colonies,"Aspergillus niger; germinated, RPMI-1640, 15.0 μM",49.6
same,Mean No. of Colonies,"Aspergillus niger; germinated, RPMI-1640, 20.0 μM",45.1
same,lethality to germinating conidia,"Aspergillus niger; germinating conidia, RPMI-1640",no effect was observed
same,Mean No. of Colonies,"Aspergillus niger; germinating, 1% PDB, 1.0 μM",60.4
same,Mean No. of Colonies,"Aspergillus niger; germinating, 1% PDB, 2.5 μM",45.8
same,Mean No. of Colonies,"Aspergillus niger; germinating, 1% PDB, 5.0 μM",9.3
same,Mean No. of Colonies,"Aspergillus niger; germinating, 1% PDB, 10.0 μM",6.1
same,Mean No. of Colonies,"Aspergillus niger; germinating, 1% PDB, 15.0 μM",2.9
same,Mean No. of Colonies,"Aspergillus niger; germinating, 1% PDB, 20.0 μM",2.0
same,viability of nongerminated conidia,"Aspergillus niger; nongerminated conidia, either test medium",not affected
same,Mean No. of Colonies,"Aspergillus niger; nongerminated, 1% PDB, 1.0 μM",36.5
same,Mean No. of Colonies,"Aspergillus niger; nongerminated, 1% PDB, 2.5 μM",34.5
same,Mean No. of Colonies,"Aspergillus niger; nongerminated, 1% PDB, 5.0 μM",42.3
same,Mean No. of Colonies,"Aspergillus niger; nongerminated, 1% PDB, 10.0 μM",33.1
same,Mean No. of Colonies,"Aspergillus niger; nongerminated, 1% PDB, 15.0 μM",41.5
same,Mean No. of Colonies,"Aspergillus niger; nongerminated, 1% PDB, 20.0 μM",23.0
same,Mean No. of Colonies,"Aspergillus niger; nongerminated, RPMI-1640, 5.0 μM",37.5
same,Mean No. of Colonies,"Aspergillus niger; nongerminated, RPMI-1640, 10.0 μM",42.8
same,Mean No. of Colonies,"Aspergillus niger; nongerminated, RPMI-1640, 15.0 μM",40.9
same,Mean No. of Colonies,"Aspergillus niger; nongerminated, RPMI-1640, 20.0 μM",51.0
same,activity against conidia,Fusarium oxysporum,not active
same,IC50,Candida albicans,3.1 µM and 3.8 µg/mL
same,IC90,Candida albicans,6.2 µM and 7.7 µg/mL
same,minimal effective concentration,Candida albicans; read-out: lowest effective level in vitro,~3 µM
same,lethality to mammalian cells,[1],not lethal
